From the supplement of paper PMC10883282
Where a name gives a salt, the structure may show the parent alone. ± gives the standard deviation of the averaged measurements.

Tested on: KHOS-240S
Assay: relative viability vs DMSO control (72 h) (fraction); higher = more viable cells
Method in brief: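 Sarcoma cell lines were seeded in 384-well plates at densities chosen for 80–90% confluence, then 24 h later given 2.5 µl of serially diluted compound drawn from source plates spanning 10 mM to 0.0002 mM. They were held 72 h at 37 °C, 5% CO2, with 0.1% DMSO vehicle and a 5 µM positive control included. Relative viability was read with ATPLite as percent growth and averaged over up to triplicate wells. Rescaling placed full at 1 and none at 0.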

SMILES	relative viability (0.00017 µM)	relative viability (0.00051 µM)	relative viability (0.00152 µM)	relative viability (0.00457 µM)	relative viability (0.01372 µM)	relative viability (0.04115 µM)	relative viability (0.1235 µM)	relative viability (0.3704 µM)	relative viability (1.111 µM)	relative viability (3.333 µM)	relative viability (10 µM)	relative viability (2 pM)	relative viability (5 pM)	relative viability (15 pM)	relative viability (50 pM)	relative viability (0.00014 µM)	relative viability (0.00041 µM)	relative viability (0.0012 µM)	relative viability (0.0037 µM)	relative viability (0.011 µM)	relative viability (200 fM)	relative viability (600 fM)
CCCS(=O)(=O)Nc1ccc(F)c(C(=O)c2c[nH]c3ncc(-c4ccc(Cl)cc4)cc23)c1F [Vemurafenib]	1.09 ± 0.063	1.07 ± 0.032	1.09 ± 0.049	1.08 ± 0.024	1.08 ± 0.026	1.07 ± 0.034	1.07 ± 0.033	1.07 ± 0.02	1.075 ± 0.0032	1.01 ± 0.02	0.708 ± 0.046											
COCc1c(-c2cc3cc(C)cc(OC)c3s2)c2c(N)ncnn2c1CN1CCNC(=O)C1 [Rogaratinib]	1.04 ± 0.015	1.07 ± 0.028	1.07 ± 0.046	1.07 ± 0.061	1.03 ± 0.011	0.995 ± 0.053	0.9 ± 0.025	0.821 ± 0.019	0.783 ± 0.045	0.671 ± 0.046	0.511 ± 0.036											
C=CC(=O)N1CCC([C@@H]2CCNc3c(C(N)=O)c(-c4ccc(Oc5ccccc5)cc4)nn32)CC1 [Zanubrutinib]	0.952 ± 0.026	0.946 ± 0.032	0.962 ± 0.02	0.9655 ± 0.007	0.936 ± 0.043	0.962 ± 0.021	0.957 ± 0.022	0.935 ± 0.037	0.901 ± 0.047	0.85 ± 0.065	0.839 ± 0.019											
COc1cccc2c1C(=O)c1c(O)c3c(c(O)c1C2=O)C[C@@](O)(C(=O)CO)C[C@@H]3O[C@H]1C[C@H](N)[C@H](O)[C@H](C)O1 [Doxorubicin Hydrochloride]	1.08 ± 0.041	1.05 ± 0.033	1.05 ± 0.026	1.07 ± 0.039	0.996 ± 0.042	0.654 ± 0.045	0.459 ± 0.011	0.241 ± 0.018	0.109 ± 0.0065	0.124 ± 0.021	0.106 ± 0.0059											
CC(C)NC(=O)C1CCC(n2c(NC(=O)c3ccc(F)cc3)nc3ccc(CN4CCC(C(C)(C)O)CC4)cc32)CC1 (stereo not drawn) [Belizatinib]	1.07 ± 0.02	1.06 ± 0.012	1.07 ± 0.043	1.08 ± 0.013	1.08 ± 0.041	1.06 ± 0.033	1.06 ± 0.034	0.923 ± 0.02	0.713 ± 0.038	0.399 ± 0.0041	0.189 ± 0.0089											
COc1cc2/c(=N/c3ccc(Br)cc3F)nc[nH]c2cc1OCC1CCN(C)CC1 [Vandetanib]	1.03 ± 0.078	1.03 ± 0.048	1.02 ± 0.042	1.05 ± 0.048	1.05 ± 0.06	1.05 ± 0.045	0.99 ± 0.022	1.01 ± 0.026	0.908 ± 0.014	0.4145 ± 0.0025	0.0298 ± 0.0027											
C[C@@H]1CCN(C(=O)CC#N)C[C@@H]1N(C)c1ncnc2[nH]ccc12 [Tofacitinib]	1.08 ± 0.068	1.05 ± 0.038	1.08 ± 0.062	1.09 ± 0.069	1.05 ± 0.031	1.05 ± 0.034	1.06 ± 0.08	1.03 ± 0.043	1.01 ± 0.076	0.977 ± 0.021	0.853 ± 0.075											
Cn1cnc2c(F)c(Nc3ccc(Br)cc3F)c(C(=O)NOCCO)cc21 [Binimetinib]	1.03 ± 0.053	1.06 ± 0.054	1.07 ± 0.067	1.06 ± 0.052	0.998 ± 0.02	0.975 ± 0.027	0.922 ± 0.04	0.895 ± 0.069	0.855 ± 0.0094	0.737 ± 0.027	0.637 ± 0.045											
Cc1nc(-c2cn3c(n2)-c2ccc(-c4cnn(C(C)(C)C(N)=O)c4)cc2OCC3)n(C(C)C)n1 [Taselisib]	1.03 ± 0.013	1.03 ± 0.024	1.01 ± 0.031	1.02 ± 0.049	0.952 ± 0.029	0.911 ± 0.012	0.856 ± 0.018	0.793 ± 0.041	0.725 ± 0.037	0.684 ± 0.049	0.566 ± 0.017											
Nc1cc(C(F)(F)F)c(-c2cc(N3CCOCC3)nc(N3CCOCC3)n2)cn1 [Buparlisib]	1.039 ± 0.01	1.02 ± 0.024	1.04 ± 0.012	1.02 ± 0.033	1.03 ± 0.032	1.03 ± 0.083	0.989 ± 0.023	0.9151 ± 0.008	0.708 ± 0.024	0.114 ± 0.0036	0.0584 ± 0.0016											
Cc1cnc(Nc2ccc(OCCN3CCCC3)cc2)nc1Nc1cccc(S(=O)(=O)NC(C)(C)C)c1 [Fedratinib]	1.07 ± 0.046	1.07 ± 0.047	1.07 ± 0.033	1.06 ± 0.023	1.05 ± 0.058	1.05 ± 0.094	0.989 ± 0.062	0.801 ± 0.018	0.412 ± 0.031	0.103 ± 0.011	0.0053 ± 0.0017											
COc1cc2c(Oc3ccc4[nH]c(C)cc4c3F)ncnc2cc1OCCCN1CCCC1 [Cediranib]	1.06 ± 0.017	1.05 ± 0.021	1.082 ± 0.0088	1.07 ± 0.02	1.05 ± 0.013	1.03 ± 0.011	0.992 ± 0.015	0.922 ± 0.022	0.908 ± 0.013	0.906 ± 0.032	0.898 ± 0.015											
CC(=O)Nc1cccc(-n2c(=O)n(C3CC3)c(=O)c3c(Nc4ccc(I)cc4F)n(C)c(=O)c(C)c32)c1 [Trametinib]	1.07 ± 0.038	1.07 ± 0.014	1.04 ± 0.027	1.02 ± 0.057	0.876 ± 0.04	0.764 ± 0.029	0.719 ± 0.028	0.717 ± 0.05	0.731 ± 0.023	0.666 ± 0.01	0.641 ± 0.017											
CC(C)N1CCN(Cc2cnc(-c3cc(-c4cccc5[nH]ccc45)cc4[nH]ncc34)o2)CC1 [Nemiralisib]	0.971 ± 0.016	0.972 ± 0.027	0.98 ± 0.026	0.971 ± 0.024	0.966 ± 0.017	0.939 ± 0.018	0.956 ± 0.027	0.927 ± 0.035	0.93 ± 0.041	0.759 ± 0.018	0.455 ± 0.026											
Cc1cc(Nc2ncnc3ccc(NC4=NC(C)(C)CO4)cc23)ccc1Oc1ccn2ncnc2c1 [Tucatinib]	1.06 ± 0.019	1.11 ± 0.022	1.09 ± 0.036	1.07 ± 0.031	1.075 ± 0.0081	1.09 ± 0.03	1.08 ± 0.025	1.07 ± 0.027	1.05 ± 0.054	1.01 ± 0.022	0.953 ± 0.051											
COc1cc2c(cc1O)CCN[C@]21CS[C@@H]2c3c(OC(C)=O)c(C)c4c(c3[C@H](COC1=O)N1[C@@H]2[C@H]2c3c(cc(C)c(OC)c3O)C[C@@H]([C@@H]1O)N2C)OCO4 [Trabectedin]												1.07 ± 0.015	1.082 ± 0.0023	1.07 ± 0.042	0.946 ± 0.034	0.482 ± 0.054	0.00547 ± 0.0011	0.0576 ± 0.0015	0.0794 ± 0.014	0.0885 ± 0.032	1.08 ± 0.022	1.08 ± 0.022
C[C@@H]1COCCN1c1cc(-c2ccnn2C)c2ccnc(-c3ccn[nH]3)c2n1	1.04 ± 0.014	1.06 ± 0.013	1.07 ± 0.042	1.04 ± 0.011	1.01 ± 0.036	0.783 ± 0.028	0.366 ± 0.051	0.194 ± 0.026	0.161 ± 0.0077	0.129 ± 0.0056	0.119 ± 0.0037											
Cc1cc(C)c(/C=C2\C(=O)Nc3ccccc32)[nH]1 [Semaxanib]	1.01 ± 0.02	1.01 ± 0.032	1.01 ± 0.025	1.02 ± 0.034	0.99 ± 0.01	0.966 ± 0.013	0.951 ± 0.022	0.959 ± 0.024	0.844 ± 0.025	0.812 ± 0.023	0.803 ± 0.024											
Cc1ccc(F)c(NC(=O)Nc2ccc(-c3cccc4[nH]nc(N)c34)cc2)c1 [Linifanib]	1.06 ± 0.02	1.08 ± 0.08	1.059 ± 0.0094	1.07 ± 0.031	1.05 ± 0.029	1.08 ± 0.041	1.03 ± 0.049	1.04 ± 0.054	1.06 ± 0.043	1.04 ± 0.011	0.999 ± 0.054											
CNC(=O)c1ccc(-c2cnc3ncc(Cc4ccc5ncccc5c4)n3n2)cc1F [Capmatinib]	1.07 ± 0.048	1.05 ± 0.02	1.046 ± 0.0098	1.07 ± 0.033	1.07 ± 0.018	1.06 ± 0.018	1.06 ± 0.027	1.04 ± 0.018	1.03 ± 0.018	1.03 ± 0.012	0.986 ± 0.03											
CN1CCC(COc2cnc(-c3cccc(Cn4nc(-c5cccc(C#N)c5)ccc4=O)c3)nc2)CC1 [Tepotinib]	1.09 ± 0.051	1.09 ± 0.014	1.1 ± 0.043	1.09 ± 0.035	1.04 ± 0.019	1.08 ± 0.045	1.04 ± 0.045	1.02 ± 0.031	1 ± 0.017	0.94 ± 0.095	0.593 ± 0.022											
N#CC[C@H](C1CCCC1)n1cc(-c2ncnc3[nH]ccc23)cn1 [Ruxolitinib]	0.984 ± 0.0066	0.984 ± 0.012	0.97 ± 0.043	0.975 ± 0.025	0.95 ± 0.035	0.966 ± 0.028	0.943 ± 0.037	0.912 ± 0.037	0.88 ± 0.024	0.773 ± 0.037	0.583 ± 0.015											
CC(C)(C)c1cc(NC(=O)Nc2ccc(-c3cn4c(n3)sc3cc(OCCN5CCOCC5)ccc34)cc2)no1 [Quizartinib]	1.06 ± 0.037	1.05 ± 0.011	1.05 ± 0.025	1.05 ± 0.02	1.06 ± 0.026	1.049 ± 0.0031	1.03 ± 0.029	1.01 ± 0.027	0.994 ± 0.036	0.796 ± 0.05	0.7219 ± 0.0064											
COc1c(OCCCN2CCOCC2)ccc2c1N=C(NC(=O)c1cnc(N)nc1)N1CCN=C21 [Copanlisib]	1.09 ± 0.041	1.02 ± 0.048	1.06 ± 0.013	0.922 ± 0.094	0.889 ± 0.098	0.833 ± 0.09	0.714 ± 0.014	0.629 ± 0.022	0.409 ± 0.018	0.217 ± 0.008	0.188 ± 0.003											
Cc1ccc(NC(=O)c2ccc(CN3CCN(C)CC3)cc2)cc1Nc1nc(-c2cccnc2)cs1 [Masitinib]	1.02 ± 0.03	1.03 ± 0.021	1.04 ± 0.017	1.03 ± 0.011	1.01 ± 0.051	1.01 ± 0.047	0.98133 ± 0.00047	0.862 ± 0.033	0.758 ± 0.012	0.474 ± 0.028	0.109 ± 0.005											
Cn1cc(-c2cc3c(N4CCN(c5ncc([C@@](C)(N)c6ccc(F)cc6)cn5)CC4)ncnn3c2)cn1 [Avapritinib]	1.03 ± 0.022	1.025 ± 0.0056	1 ± 0.039	0.992 ± 0.038	1.02 ± 0.033	1.01 ± 0.014	0.965 ± 0.024	0.943 ± 0.021	0.84 ± 0.026	0.783 ± 0.027	0.656 ± 0.025											
O=C(Cc1ccc(-c2ccc(OCCN3CCOCC3)cc2)cn1)NCc1ccccc1 [KX2-391]	1.07 ± 0.025	1.1 ± 0.037	1.1 ± 0.02	1.07 ± 0.035	1.06 ± 0.049	0.896 ± 0.022	0.26 ± 0.013	0.221 ± 0.014	0.161 ± 0.011	0.142 ± 0.02	0.134 ± 0.015											
CO[C@H]1C[C@@H]2CC[C@@H](C)[C@@](O)(O2)C(=O)C(=O)N2CCCC[C@H]2C(=O)O[C@H]([C@H](C)C[C@@H]2CC[C@@H](OP(C)(C)=O)[C@H](OC)C2)CC(=O)[C@H](C)/C=C(\C)[C@@H](O)[C@@H](OC)C(=O)[C@H](C)C[C@H](C)/C=C/C=C/C=C/1C [Ridaforolimus]	1.03 ± 0.012	1.03 ± 0.027	0.987 ± 0.027	0.932 ± 0.015	0.919 ± 0.026	0.898 ± 0.022	0.878 ± 0.014	0.851 ± 0.016	0.826 ± 0.032	0.777 ± 0.018	0.741 ± 0.017											
